4 compounds from US5770617A, “Terbenzimidazoles useful as antifungal agents” (Rutgers, The State University of New Jersey, priority 1997, dated 1998) can be followed below.

For assay [1], the system named is CPT-K5 (camptothecin-resistant variant of RPMI 8402). The assay can be described thus: MTT cytotoxicity assay, CPT-K5. It counts as cell-based, human. The protocol: The cytotoxicity was determined using the as MTT-microtiter plate tetrazolinium cytotoxicity assay (MTA) following the procedures of F. Denizot et al., J. Immunol. Methods, 89, 271 (1986); J. Carmichael et al., Cancer Res, 47, 936 (1987) and T. J. Mosmann et al., Immunol. Methods, 65, 55 (1983). The human lymphoblast RPMI 8402 and its camptothecin-resistant variant cell line, CPT-K5 were provided by Dr. Toshiwo Andoh (Aichi Cancer Center Research Institute, Nagoya, Japan). See, for example, T. Andoh et al., Adv. Pharmacol., 29B, 93 (1994). The cytotoxicity assay was performed using 96-well microtiter plates. Cells were grown in suspension at 37 ° C. in 5% CO2 and maintained by regular passage in RPMI medium supplemented with 10% heat inactivated fetal bovine serum, L-glutamine (2 mM), penicillin (100 U/ml), and streptomycin (0.1 mg/ml). For determination of IC50, cells were exposed continuously with varying concentrations of drug concentrations and MTT assays were performed at the end of the fourth day.

In assay [2] the target is T1, human topoisomerase I (Homo sapiens, UniProt P11387).
T1 construct: made in house; host or cells: Escherichia coli BL21 (DE3) harboring PET1B
T1 sequence (P11387 1-765): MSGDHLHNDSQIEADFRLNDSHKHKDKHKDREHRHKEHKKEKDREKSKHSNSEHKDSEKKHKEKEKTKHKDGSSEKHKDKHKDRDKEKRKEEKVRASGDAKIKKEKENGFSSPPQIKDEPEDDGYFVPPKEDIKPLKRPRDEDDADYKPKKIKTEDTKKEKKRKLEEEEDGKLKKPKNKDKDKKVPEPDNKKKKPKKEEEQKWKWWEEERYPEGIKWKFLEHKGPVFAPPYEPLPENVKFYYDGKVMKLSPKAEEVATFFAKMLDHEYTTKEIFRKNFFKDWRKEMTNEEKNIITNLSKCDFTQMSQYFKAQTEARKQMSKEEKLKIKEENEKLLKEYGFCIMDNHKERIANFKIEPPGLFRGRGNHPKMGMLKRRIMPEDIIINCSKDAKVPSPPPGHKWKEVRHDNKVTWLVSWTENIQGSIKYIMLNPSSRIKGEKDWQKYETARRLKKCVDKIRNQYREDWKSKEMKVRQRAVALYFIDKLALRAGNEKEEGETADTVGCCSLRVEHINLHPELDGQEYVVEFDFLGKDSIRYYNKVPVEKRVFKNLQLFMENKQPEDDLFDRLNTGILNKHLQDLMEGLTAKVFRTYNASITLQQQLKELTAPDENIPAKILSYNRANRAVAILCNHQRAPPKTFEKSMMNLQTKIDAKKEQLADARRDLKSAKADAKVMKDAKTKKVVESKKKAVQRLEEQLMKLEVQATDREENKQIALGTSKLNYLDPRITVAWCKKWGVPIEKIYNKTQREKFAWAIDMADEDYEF
In words: Topoisomerase I cleavage assay, human enzyme. It counts as biochemical. Particulars: recombinant human topoisomerase I. The protocol:
Plasmid YEpG was also purified by the alkali lysis method followed by phenol deproteination and CsCl/ethidium isopycnic centrifugation as described by T. Maniatis et al., Molecular Cloning, A Laboratory Manual, Cold Spring Harbor Labs, N.Y. (1982) at pages 149-185. The end-labeling of the plasmid was accomplished as previously described by L. F. Liu et al., J. Biol. Chem., 258, 15365 (1983). The cleavage assays were performed as previously reported by A. Y. Chen et al., Cancer Res., 53, 1332 (1993). Human topoisomerase I was isolated as a recombinant fusion protein using a T7 expression system.
Subsequent steps in purification were the same as described previously for purification of recombinant human DNA topoisomerase I (B. Gatto et al., Cancer Res., 56, 2795 (1996)). Briefly, the supernatant was chromatographed directly onto a hydroxyapatite Bio-gel HTP (BioRad Laboratories, Richmond, Calif.) column. Fractions containing relaxation activity were pooled, diluted and then loaded onto a BioRex70 column (BioRad Laboratories, Richmond, Calif.). The column was developed with a linear gradient from 0.2 to 1M KCl. The peak fractions were pooled and dialyzed overnight at 4° C. against 30 mM potassium phosphate, 50% glycerol (v/v), 0.5 mM EDTA, and 1 mM DTT. Recombinant human topoisomerase I was purified from Escherichia coli BL21 (DE3) harboring PET1B as described previously (Gatto et al., Cancer Res., 56, 2795 (1996)).
DNA topoisomerase I cleavage assays were performed as described by Y.-H. Hsiang et al., J. Biol. Chem., 260, 14873 (1985). YEpG DNA was linearized with BamHI and then 3 '-end-labeled with Klenow polymerase and α[-^32 P]dCTP. Following phenol extraction and ethanol precipitation, the labeled DNA was resuspended in 10 mM Tris, pH 8.0, and 1 mM EDTA. The DNA cleavage assay was done in a reaction mixture (20 μl) containing 40 mM Tris-HCl, pH 7.8, 100 mM KCl, 10 mM MgCl2, 0.5 mM dithiothreitol, 0.5 mM EDTA, 30 μg/ml bovine serum albumin, 20 ng of labeled YEpG DNA, and […] of Aspergillus or human topoisomerase I diluted to various extents. Following incubation at 23° C. for 15 minutes, the reactions were terminated by the addition of SDS (final concentration 1%) and proteinase K (final concentration 200 μg/ml). Proteinase K treatment continued at 37° C. for another 1 hour. The terminated reactions were either alkali-denatured and then loaded (alkaline loading) or loaded directedly in neutral loading buffer (neutral loading) onto a 1% agarose gel in neutral TPE electrophoresis solution. Gel drying and autoradiography were performed as described by Hsiang et al., cited above.

With `CCOc1ccc(-c2nc3cc(-c4nc5cc(N6CCN(C)CC6)ccc5[nH]4)ccc3[nH]2)cc1` [Hoechst 33342, 2'-(4-ethoxyphenyl)-5-(4-methyl-1-piperazinyl)-2,5'-bi-1H-benzimidazole], in assay [1], the “effect against camptothecin-resistant CPT-K5 cells, in words” value is listed as “effective”. Further, the “sensitivity of human topoisomerase I to poisoning / DNA cleavage with human topoisomerase I, in words” value in assay [2] is recorded as “sensitive”.

Take `CC[C@@]1(O)C(=O)OCc2c1cc1n(c2=O)Cc2cc3ccccc3nc2-1` [camptothecin]: the “sensitivity of human topoisomerase I to poisoning / DNA cleavage with human topoisomerase I, in words” value in assay [2] is recorded as “sensitive”.

For `c1ccc(-c2ccc3[nH]c(-c4ccc5[nH]c(-c6ccc7[nH]cnc7c6)nc5c4)nc3c2)cc1` [Compound 13, 5-Phenyl-2-[2'(benzimidazol-5"-yl)benzimidazol-5'-yl]benzimidazole], the “effect against camptothecin-resistant CPT-K5 cells, in words” value in assay [1] is given as “effective”. In assay [2], the “sensitivity of human topoisomerase I to poisoning / DNA cleavage with human topoisomerase I, in words” value is listed as “sensitive”.

Regarding `N#Cc1ccc2[nH]c(-c3ccc4[nH]c(-c5ccc6[nH]cnc6c5)nc4c3)nc2c1` [Compound 11, 5-Cyano-2-[2'-(benzimidazol-5"-yl)benzimidazol-5'-yl]benzimidazole], in assay [2], the “sensitivity of human topoisomerase I to poisoning / DNA cleavage with human topoisomerase I, in words” value was “sensitive”.
